We go through two compounds from paper PMC2652245 (Cancer research, 2008).

One data set addresses ABCB1 (P-glycoprotein) (Homo sapiens, UniProt P08183). Put plainly: competition of […]-IAAP photoaffinity labeling in membrane vesicles. Format: binding.
For the next data set, the target named is T1, ABCG2 (Homo sapiens, UniProt Q9UNQ0).
T1 sequence (Q9UNQ0 1-655): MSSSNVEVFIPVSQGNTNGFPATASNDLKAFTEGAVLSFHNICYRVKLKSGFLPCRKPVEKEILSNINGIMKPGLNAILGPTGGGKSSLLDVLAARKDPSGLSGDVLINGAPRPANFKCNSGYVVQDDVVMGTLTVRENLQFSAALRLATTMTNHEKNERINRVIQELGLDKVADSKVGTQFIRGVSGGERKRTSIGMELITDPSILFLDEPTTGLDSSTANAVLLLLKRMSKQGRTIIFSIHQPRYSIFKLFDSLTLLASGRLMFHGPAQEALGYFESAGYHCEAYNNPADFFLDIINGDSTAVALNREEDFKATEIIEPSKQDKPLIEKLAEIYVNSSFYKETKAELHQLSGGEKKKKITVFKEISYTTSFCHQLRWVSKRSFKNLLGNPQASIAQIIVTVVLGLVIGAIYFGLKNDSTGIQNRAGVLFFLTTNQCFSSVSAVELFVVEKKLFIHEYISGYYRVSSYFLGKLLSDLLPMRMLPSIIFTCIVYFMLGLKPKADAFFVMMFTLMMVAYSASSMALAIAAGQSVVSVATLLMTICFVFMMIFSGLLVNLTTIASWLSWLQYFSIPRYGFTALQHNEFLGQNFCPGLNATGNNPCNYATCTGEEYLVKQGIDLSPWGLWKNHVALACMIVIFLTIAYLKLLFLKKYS

Chain of ABCB1 (P-glycoprotein) (P08183 whole entry): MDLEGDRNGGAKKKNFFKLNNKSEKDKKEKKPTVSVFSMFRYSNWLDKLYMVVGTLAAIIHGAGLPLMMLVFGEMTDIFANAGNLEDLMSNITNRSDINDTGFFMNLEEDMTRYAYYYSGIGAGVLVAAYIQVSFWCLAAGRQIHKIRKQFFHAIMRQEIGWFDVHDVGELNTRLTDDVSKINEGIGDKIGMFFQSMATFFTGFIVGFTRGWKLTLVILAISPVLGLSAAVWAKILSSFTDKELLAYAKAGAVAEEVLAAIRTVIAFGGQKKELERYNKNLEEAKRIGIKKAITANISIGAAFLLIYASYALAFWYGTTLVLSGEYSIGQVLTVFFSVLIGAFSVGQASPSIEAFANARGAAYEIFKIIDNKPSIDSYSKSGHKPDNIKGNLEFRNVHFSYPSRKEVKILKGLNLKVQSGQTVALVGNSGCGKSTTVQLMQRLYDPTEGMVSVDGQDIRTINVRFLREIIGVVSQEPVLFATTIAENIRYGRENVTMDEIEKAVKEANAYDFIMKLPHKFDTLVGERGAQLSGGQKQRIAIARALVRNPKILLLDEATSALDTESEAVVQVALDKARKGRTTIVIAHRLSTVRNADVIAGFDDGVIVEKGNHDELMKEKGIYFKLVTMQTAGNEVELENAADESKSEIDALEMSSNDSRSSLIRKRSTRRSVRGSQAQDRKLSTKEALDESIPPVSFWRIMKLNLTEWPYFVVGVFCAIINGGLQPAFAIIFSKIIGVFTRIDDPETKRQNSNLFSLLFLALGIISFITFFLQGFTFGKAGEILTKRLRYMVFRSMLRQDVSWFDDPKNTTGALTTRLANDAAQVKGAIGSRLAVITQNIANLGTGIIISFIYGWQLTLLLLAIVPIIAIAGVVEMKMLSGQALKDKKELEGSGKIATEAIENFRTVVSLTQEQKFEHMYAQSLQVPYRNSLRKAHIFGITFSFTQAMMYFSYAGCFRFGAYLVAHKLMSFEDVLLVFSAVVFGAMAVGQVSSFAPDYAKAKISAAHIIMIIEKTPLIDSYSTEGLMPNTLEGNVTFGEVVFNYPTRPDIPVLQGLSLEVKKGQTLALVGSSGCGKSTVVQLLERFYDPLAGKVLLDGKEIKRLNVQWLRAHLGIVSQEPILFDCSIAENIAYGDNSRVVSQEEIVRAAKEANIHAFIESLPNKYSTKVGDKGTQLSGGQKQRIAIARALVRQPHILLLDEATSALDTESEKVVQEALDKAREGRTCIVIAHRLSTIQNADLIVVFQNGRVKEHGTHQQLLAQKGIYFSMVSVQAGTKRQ

By IC50 is commonly meant the concentration needed to halve the response being measured. Low values mean higher potency, high ones lower potency. At ABCB1 (P-glycoprotein), `CS(=O)(=O)CCNCc1ccc(-c2ccc3ncnc(Nc4ccc(OCc5cccc(F)c5)c(Cl)c4)c3c2)o1` [lapatinib, N-{3-chloro-4-[(3-fluorobenzyl)oxy]phenyl}-6-[5-({[2-(methylsulfonyl)ethyl]amino}methyl)-2-furyl]-4-quinazolinamine] had an IC50 of 2800 ± 600 nM.
Turning to `C#Cc1cccc(Nc2ncnc3cc(OCCOC)c(OCCOC)cc23)c1` [erlotinib], the “inhibition of [3H]-methotrexate uptake in membrane vesicles” value on ABCG2 was “inhibitory effect of lapatinib on methotrexate transport by ABCG2 membrane vesicles is comparable to that of erlotinib and FTC”.
